Values quoted from earlier work as cited in US20100111874A1, “METHOD OF CANCER DETECTION AND TREATMENT” (University of Medicine and Dentistry of New Jresey, priority 2007, published 2010).

System: human colon cancer xenografts
Settings: combined with interferons; nude mice; cited from earlier work

## CCc1c2c(nc3ccc(OC(=O)N4CCC(N5CCCCC5)CC4)cc13)-c1cc3c(c(=O)n1C2)COC(=O)[C@]3(O)CC [CPT-11]
  anticancer activity in combination with interferons: synergistic
